Experimental data reported in paper PMC7261199 (Chemistry (Weinheim an der Bergstrasse, Germany), 2020).

Molecular target: prostate-specific membrane antigen (PSMA) (Homo sapiens, UniProt Q04609)
Assay: radioligand displacement of […]mTc-MIP-1427 in PSMA-expressing PC-3 PiP cells
Format: cell-based

prostate-specific membrane antigen (PSMA), sequence (Q04609 whole entry): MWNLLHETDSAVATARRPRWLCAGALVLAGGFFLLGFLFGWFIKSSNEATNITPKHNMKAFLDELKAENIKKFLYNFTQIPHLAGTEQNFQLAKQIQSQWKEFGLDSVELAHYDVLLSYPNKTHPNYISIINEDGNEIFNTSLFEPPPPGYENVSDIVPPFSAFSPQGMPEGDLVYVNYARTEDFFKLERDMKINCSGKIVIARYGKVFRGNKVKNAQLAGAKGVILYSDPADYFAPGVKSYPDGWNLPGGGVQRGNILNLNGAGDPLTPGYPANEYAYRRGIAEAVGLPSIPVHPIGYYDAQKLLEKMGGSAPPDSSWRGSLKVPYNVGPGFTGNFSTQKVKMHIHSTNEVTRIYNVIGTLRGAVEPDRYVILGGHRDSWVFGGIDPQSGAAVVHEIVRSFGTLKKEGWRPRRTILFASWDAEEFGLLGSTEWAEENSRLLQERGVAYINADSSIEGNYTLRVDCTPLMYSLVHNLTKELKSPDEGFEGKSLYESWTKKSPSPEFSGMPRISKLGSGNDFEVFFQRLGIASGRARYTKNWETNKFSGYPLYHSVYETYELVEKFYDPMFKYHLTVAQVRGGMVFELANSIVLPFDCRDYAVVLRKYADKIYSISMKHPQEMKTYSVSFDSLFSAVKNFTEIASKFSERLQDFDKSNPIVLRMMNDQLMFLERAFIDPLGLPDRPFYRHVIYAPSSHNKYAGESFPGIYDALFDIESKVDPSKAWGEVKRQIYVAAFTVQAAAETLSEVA

Row | Substance | Ki [nM]
1 | La(DO2Apic)-DUPA | 12 ± 3
2 | La(macropa)-DUPA | 17 ± 2
